Biological target: T1, IDH R132C (Homo sapiens, UniProt O75874, R132C)
T1 construct: expressed in transfected cells; host or cells: U87 cells
Test: Detection of 2-HG in supernatant of U87-IDH R132C cells
Assay type: cell-based
Settings: 72 h, LC-MS-MS, vs control; for inhibition at 0.001 µM: read-out: Inhibition rate of compounds on 2-HG in the supernatant of U87-IDH R132C cells, 1 nM; for inhibition at 0.01 µM: read-out: Inhibition rate of compounds on 2-HG in the supernatant of U87-IDH R132C cells, 10 nM; for inhibition at 0.1 µM: read-out: Inhibition rate of compounds on 2-HG in the supernatant of U87-IDH R132C cells, 100 nM
Experimental: U87 cells overexpressing the IDH R132C mutation were seeded in a 48-well plate at 50,000 cells/well. After the cells were incubated overnight for adhesion, the supernatant was removed. The cell culture media containing serially diluted compounds were added, and the cells were incubated for 72 h. After 72 h, the cultures were collected and diluted 10-fold with water, and acetonitrile was added to extract the metabolites. The 2-HG content in the cultures was analyzed by LC-MS-MS, and the percentage inhibition of compounds on 2-HG in the supernatant was calculated as compared with the control.

T1 sequence (O75874 whole entry R132C): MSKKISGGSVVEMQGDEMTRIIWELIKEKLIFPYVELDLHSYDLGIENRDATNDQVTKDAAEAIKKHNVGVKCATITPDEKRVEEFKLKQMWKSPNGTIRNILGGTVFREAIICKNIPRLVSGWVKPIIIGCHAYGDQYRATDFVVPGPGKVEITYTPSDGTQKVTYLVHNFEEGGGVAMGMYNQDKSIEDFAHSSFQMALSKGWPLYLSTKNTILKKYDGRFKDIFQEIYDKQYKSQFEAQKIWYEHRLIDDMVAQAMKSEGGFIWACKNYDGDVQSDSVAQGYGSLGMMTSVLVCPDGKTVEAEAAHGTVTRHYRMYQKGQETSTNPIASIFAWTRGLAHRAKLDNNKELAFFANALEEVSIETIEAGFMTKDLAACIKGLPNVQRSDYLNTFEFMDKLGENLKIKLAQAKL

| SMILES | Inhibition rate of compounds on 2-HG in the supernatant of U87-IDH R132C cells, 1 nM (1 nM compound) | Inhibition rate of compounds on 2-HG in the supernatant of U87-IDH R132C cells, 10 nM (10 nM compound) | Inhibition rate of compounds on 2-HG in the supernatant of U87-IDH R132C cells, 100 nM (100 nM compound) | inhibition at 0.001 µM (1 nM compound) [%] | inhibition at 0.01 µM (10 nM compound) [%] | inhibition at 0.1 µM (100 nM compound) [%] |
| --- | --- | --- | --- | --- | --- | --- |
| C=CC(=O)N1CC2(CC([C@@H](CC3CCC3)c3ccc([C@H](C)Nc4ncc5c(n4)N(CC)C(=O)OC5)cc3)C2)C1 [Compound 1-1] | C (C represents an inhibition rate greater than 30% but less than or equal to 60%) | A (A represents an inhibition rate greater than 90%) | A (A represents an inhibition rate greater than 90%) | – | – | – |
| C=CC(=O)N1CC2(C1)CN([C@@H](CC13CC(C1)C3)c1ccc([C@H](C)Nc3ncc4c(n3)N(CC)C(=O)NC4)cc1)C2 [Compound 72-1] | – | – | – | 60 to 90 | > 90 | > 90 |
| N#Cc1ccnc(N2C(=O)CC[C@H]2C(=O)N(c2cncc(F)c2)[C@H](C(=O)NC2CC(F)(F)C2)c2ccccc2Cl)c1 [Ivosidenib, ivosidenib, reference compound] | – | – | – | < 30 | < 30 | 60 to 90 |
| C=CC(=O)N1CCN(C(CC2CC2)c2ccc(C3(Nc4ncc5cnc(=O)n(CC)c5n4)CC3)cc2)CC1 (stereo not drawn) [Compound 109] | – | – | – | 60 to 90 | 60 to 90 | > 90 |
| C=CC(=O)N1CCN(C(CC2CC2)c2ccc([C@H](C)Nc3ncc4cnc(=O)n(CC)c4n3)cc2)CC1 (stereo partly drawn) [Compound 114] | – | – | – | 60 to 90 | > 90 | > 90 |
| C=CC(=O)N1CCN(C(CC2CC2)c2ccc(C3(Nc4ncc5cnc(=O)n(C(C)C)c5n4)CC3)cc2)CC1 (stereo not drawn) [Compound 106] | – | – | – | 30 to 60 | 60 to 90 | > 90 |
| C=CC(=O)N1CC2(C1)CN(C(CC)c1ccc([C@H](C)Nc3ncc4c(n3)N(C(C)C)C(=O)OC4)cc1)C2 (stereo partly drawn) [Compound 46] | – | – | – | 60 to 90 | > 90 | > 90 |
| C=CC(=O)N1CCN(C(CC2CCC2)c2ccc([C@H](C)Nc3ncc4c(n3)N(C(C)C)C(=O)OC4)cc2)CC1 (stereo partly drawn) [Compound 143] | – | – | – | 30 to 60 | 60 to 90 | > 90 |
| C=CC(=O)N(C)C1CCN(C(CC2CC2)c2ccc([C@H](C)Nc3ncc4c(n3)N(C(C)C)C(=O)OC4)cc2)CC1 (stereo partly drawn) [Compound 24] | – | – | – | 30 to 60 | > 90 | > 90 |
| C=CC(=O)N1CC2(C1)CN([C@@H](CC13CC(C1)C3)c1ccc([C@H](C)Nc3ncc4c(n3)N(CC)C(=O)OC4)cc1)C2 [Compound 66-1] | – | – | – | 60 to 90 | > 90 | > 90 |
| C=CC(=O)N1CC2(C1)CN(C(CC1CC1)c1ccc(C3(Nc4ncc5c(n4)N(CC)C(=O)OC5)CC3)cc1)C2 (stereo not drawn) [Compound 26] | – | – | – | 30 to 60 | 60 to 90 | > 90 |
| C=CC(=O)N1CCN(C(CC)c2ccc([C@H](C)Nc3ncc4cnc(=O)n(C(C)C)c4n3)cc2)CC1 (stereo partly drawn) [Compound 112] | – | – | – | 60 to 90 | > 90 | > 90 |
| C=CC(=O)N1CC2(C1)CN(C(CC1(C)CC1)c1ccc([C@H](C)Nc3ncc4c(n3)N(CC)C(=O)OC4)cc1)C2 (stereo partly drawn) [Compound 65] | – | – | – | 30 to 60 | > 90 | > 90 |
| C=CC(=O)N1CC2(C1)CN([C@H](CC13CC(C1)C3)c1ccc([C@H](C)Nc3ncc4c(n3)N(CC)C(=O)OC4)cc1)C2 [Compound 66-2] | – | – | – | 30 to 60 | 60 to 90 | > 90 |
| C=CC(=O)N1CCN([C@@H](CC23CC(C2)C3)c2ccc([C@H](C)Nc3ncc4c(n3)N(CC)C(=O)OC4)cc2)CC1 [Compound 157-1] | – | – | – | 60 to 90 | > 90 | > 90 |
| C=CC(=O)N1CC2(C1)CN(C(CC13CC(C1)C3)c1ccc([C@H](C)Nc3ncc4c(n3)N(CC)C(=O)OC4)cc1)C2 (stereo partly drawn) [Compound 66] | – | – | – | 60 to 90 | > 90 | > 90 |
| C=CC(=O)N1CCN(C(CCC)c2ccc([C@H](C)Nc3ncc4c(n3)N(CC)C(=O)OC4)cc2)CC1 (stereo partly drawn) [Compound 141] | – | – | – | 30 to 60 | 60 to 90 | > 90 |
| C=CC(=O)N1CCN(C(CC2CC2)c2ccc([C@H](C)Nc3ncc4c(n3)N(CC)C(=O)NC4)cc2)CC1 (stereo partly drawn) [Compound 82] | – | – | – | 30 to 60 | 60 to 90 | > 90 |
| C=CC(=O)N1CC2(C1)CN(C(CC)c1ccc([C@H](C)Nc3ncc4c(n3)N(CC)C(=O)OC4)cc1)C2 (stereo partly drawn) [Compound 36] | – | – | – | 60 to 90 | > 90 | > 90 |
| C=CC(=O)N1CCN([C@H](CC2CC2)c2ccc([C@H](C)Nc3ncc4cnc(=O)n(C(C)C)c4n3)cc2)CC1 [Compound 85-2] | – | – | – | 30 to 60 | 60 to 90 | > 90 |

From patent publication US12559505B2, “IDH mutant inhibitor and use thereof” (WIGEN BIOMEDICINE TECHNOLOGY (SHANGHAI) CO., LTD., priority 2020, dated 2026)
